{"source": "paper PMC6753678", "about": "“Fueling Open Innovation for Malaria Transmission-Blocking Drugs: Hundreds of Molecules Targeting Early Parasite Mosquito Stages” (Frontiers in Microbiology, 2019)", "key": {"[1]": {"test_system": "P. falciparum female gametocytes", "experiment": "P. falciparum Dual Gamete Formation Assay (Pf DGFA), female readout", "conditions": "for Pf DGFA Female, Expt 1 / Pf DGFA Female, Expt 2 / Pf DGFA Female, Expt 3 / Pf DGFA Female, Expt 4: 1µM; for inhibition at 1 µM: Plasmodium falciparum, read-out: % inhibition Pf DGFA (female) 1 μM (±SEM), 1 μM, mean of four experiments"}, "[2]": {"test_system": "P. berghei oocyst intensity in Anopheles stephensi mosquitoes", "experiment": "P. berghei standard membrane feeding assay (Pb SMFA)", "conditions": "for inhibition at 1 µM: read-out: % inhibition Pb SMFA 1 μM (±SEM), inhibition of oocyst intensity at 1 μM"}, "[3]": {"test_system": "HepG2 cells", "conditions": "cited from earlier work"}, "[4]": {"test_system": "P. falciparum female gametocytes", "experiment": "P. falciparum female gametogenesis assay (Pf FGAA)", "conditions": "1: YES; 0: NO"}, "[5]": {"test_system": "3D7-strain P. falciparum asexual parasites", "experiment": "P. falciparum asexual growth inhibition assay (Pf GIA)", "assay_type": "cell-based, Plasmodium falciparum", "conditions": "Plasmodium falciparum", "procedure,_shortened": "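LDH readout: absorbance at 650 nm after 10 min at room temperature with lactate/APAD/NBT/diaphorase mix on thawed plates. Cultures (0.25% parasitemia, 2% hematocrit) were treated 72 h at 37°C in low-oxygen gas. Inhibition was normalised to 50 μM chloroquine and DMSO; n=3 biological replicates.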"}, "[6]": {"test_system": "P. berghei ookinete development", "experiment": "microbe, parasite or virus in culture", "conditions": "Plasmodium berghei"}, "[7]": {"test_system": "P. falciparum male gametocytes", "experiment": "P. falciparum Dual Gamete Formation Assay (Pf DGFA), male readout", "conditions": "for Pf DGFA Male, Expt 1 / Pf DGFA Male, Expt 2 / Pf DGFA Male, Expt 3 / Pf DGFA Male, Expt 4: 1µM; for % inhibition Pf DGFA (male) 1 μM (±SEM): mean of four experiments"}, "[8]": {"test_system": "P. falciparum female gametocytes", "design": "method as in Miguel-Blanco et al 2017", "conditions": "ref Miguel-Blanco et al 2017, read-out: Pf FGAA IC50, cited from earlier work"}, "[9]": {"test_system": "P. berghei ookinete development"}, "[10]": {"test_system": "HepG2 cells", "experiment": "HepG2 cytotoxicity assay", "conditions": "for IC50: Homo sapiens, HepG2, 48 h, read-out: IC50 HepG2", "procedure,_shortened": "(§1)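 Percent inhibition derived from fluorescent viability readout, normalised to DMSO (negative) and 50 μM doxorubicin (positive). Compound incubation lasted 48 h at 37°C, 5% CO2, with 2,500 HepG2 cells/well in MEM plus 10% FBS and 1% NEAA.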"}, "[11]": {"test_system": "P. falciparum late stage (stages IV-V) gametocytes", "design": "method as in Almela et al 2016", "conditions": "TCAMS screen comparison; ref Almela et al 2016; read-out: Pf GCT ATP IC50; cited from earlier work"}, "[12]": {"experiment": "HepG2 cytotoxicity assay", "conditions": "human, HepG2 cells", "procedure,_shortened": "as §1"}, "[13]": {"conditions": "3D7, dose response confirmation, read-out: Pf asexual growth inhibition assays IC50"}, "[14]": {"conditions": "3D7, 72 h, LDH readout, read-out: IC50 Pf Asexual"}, "[15]": {"conditions": "read-out: % inhibition, Replicate A"}, "[16]": {"conditions": "read-out: % inhibition, Replicate B"}, "[17]": {"conditions": "read-out: IC50 Pb ODA, dose response, at least triplicate"}, "[18]": {"conditions": "read-out: Pb Ookinete development assay IC50 (µM), dose response confirmation"}}, "note": "“And” between values parts separate entries of the source, which are not always exact repeats. Equal entries are not always repeated. Where two headings read alike, the source gives them in different places."}
{"smiles": "Cn1c(Sc2ncnc3sccc23)nc2ccccc21", "note": "[TCMDC-124514]", "values": [{"measurement": "Pf DGFA Female, Expt 1", "setting": "[1]", "result": 99.03}, {"measurement": "Pf DGFA Female, Expt 2", "setting": "[1]", "result": 87.98}, {"measurement": "Pf DGFA Female, Expt 3", "setting": "[1]", "result": 99.79}, {"measurement": "Pf DGFA Female, Expt 4", "setting": "[1]", "result": 75.95}, {"measurement": "% inhibition Pf DGFA (female) 1 μM (±SEM)", "setting": "[1]; 1 μM, mean of four experiments", "result": 90.69, "unit": "%"}, {"measurement": "inhibition at 1 µM", "setting": "[1]", "result": 90.7, "unit": "%"}, {"measurement": "% inhibition Pb SMFA 1 μM (±SEM)", "setting": "[2]; inhibition of oocyst intensity at 1 μM", "result": 9.1, "unit": "%"}, {"measurement": "inhibition at 1 µM", "setting": "[2]", "result": 9.07, "unit": "%"}, {"measurement": "HepG2 cytoxicity (Pf FGAA screen)", "setting": "[3]; HepG2, ref Miguel-Blanco et al 2017", "result": ">100", "unit": "µM"}, {"measurement": "Is compound selective in assay? Pf FGAA active?", "setting": "[4]", "result": "1 (1: YES)"}, {"measurement": "IC50", "setting": "[5]; [13]", "result": 187, "unit": "nM"}, {"measurement": "IC50", "setting": "[5]; [14]", "result": 188, "unit": "nM"}, {"measurement": "inhibition at 1 µM", "setting": "[6]; [15]", "result": 109, "unit": "%"}, {"measurement": "inhibition at 1 µM", "setting": "[6]; [16]", "result": 101, "unit": "%"}, {"measurement": "IC50", "setting": "[6]; [17]", "result": 0.398, "unit": "µM"}, {"measurement": "IC50", "setting": "[6]; read-out: Pb ODA IC50, this manuscript", "result": 0.4, "unit": "µM"}, {"measurement": "Pf DGFA Male, Expt 1", "setting": "[7]", "result": 96.96}, {"measurement": "Pf DGFA Male, Expt 2", "setting": "[7]", "result": 90.56}, {"measurement": "Pf DGFA Male, Expt 3", "setting": "[7]", "result": 99.40}, {"measurement": "Pf DGFA Male, Expt 4", "setting": "[7]", "result": 95.50}, {"measurement": "% inhibition Pf DGFA (male) 1 μM (±SEM)", "setting": "[7]", "result": 95.61, "unit": "%"}, {"measurement": "inhibition at 1 µM", "setting": "[7]; Plasmodium falciparum, read-out: % inhibition Pf DGFA (male) 1 μM (±SEM), 1 μM, mean of four experiments", "result": 95.6, "unit": "%"}, {"measurement": "IC50", "setting": "[8]", "result": 1250, "unit": "nM"}, {"measurement": "Is compound selective in assay? Pb ODA active?", "setting": "[9]; 1: YES, 0: NO", "result": "1 (1: YES)"}, {"measurement": "IC50", "setting": "[9]; [17]", "result": "> 250 nM and 397 nM"}, {"measurement": "Unified cytotox", "setting": "[10]; HepG2 values of the three screens unified", "result": 100.00, "unit": "µM"}, {"measurement": "IC50", "setting": "[10]", "result": "> 100000", "unit": "nM"}]}
{"smiles": "CC[C@H]1CN2CCc3cc(OC)c(OC)cc3[C@@H]2C[C@@H]1C[C@H]1NCCc2cc(OC)c(OC)cc21", "note": "[TCMDC-125531]", "values": [{"measurement": "HepG2 cytoxicity", "setting": "[3]; value reported with the Pf FGAA screen, ref Miguel-Blanco et al 2017", "result": 9.77, "unit": "µM"}, {"measurement": "HepG2 cytoxicity", "setting": "[3]; value reported with the Pf GCT ATP screen, ref Almela et al 2016", "result": 21.03, "unit": "µM"}, {"measurement": "IC50", "setting": "[5]; [13]", "result": 72, "unit": "nM"}, {"measurement": "inhibition at 1 µM", "setting": "[6]; [15]", "result": 93.2, "unit": "%"}, {"measurement": "inhibition at 1 µM", "setting": "[6]; [16]", "result": 121, "unit": "%"}, {"measurement": "IC50", "setting": "[6]; read-out: Pb ODA IC50 (µM), this manuscript", "result": 0.21, "unit": "µM"}, {"measurement": "IC50", "setting": "[6]; [18]", "result": 0.213, "unit": "µM"}, {"measurement": "IC50", "setting": "[11]", "result": 350, "unit": "nM"}, {"measurement": "IC50", "setting": "[8]; TCAMS screen comparison", "result": 2730, "unit": "nM"}, {"measurement": "Unified cytotox", "setting": "[10]; human", "result": 10.78, "unit": "µM"}, {"measurement": "HepG2 cytoxicity", "setting": "[10]; value reported with the Pb ODA screen, this manuscript", "result": 1.55, "unit": "µM"}, {"measurement": "IC50 at 48 h", "setting": "[12]", "result": 1550, "unit": "nM"}]}
{"smiles": "NC(=O)c1ccccc1Nc1nc(Nc2cccc(N3CCN(CCO)CC3)c2)ncc1Cl", "note": "[TCMDC-134114]", "values": [{"measurement": "Pf DGFA Female, Expt 1", "setting": "[1]", "result": 18.27}, {"measurement": "Pf DGFA Female, Expt 2", "setting": "[1]", "result": -46.13}, {"measurement": "Pf DGFA Female, Expt 3", "setting": "[1]", "result": -5.85}, {"measurement": "Pf DGFA Female, Expt 4", "setting": "[1]", "result": -25.02}, {"measurement": "inhibition at 1 µM", "setting": "[1]", "result": -14.7, "unit": "%"}, {"measurement": "inhibition at 1 µM", "setting": "[2]", "result": 97, "unit": "%"}, {"measurement": "IC50", "setting": "[5]; [13]", "result": 22, "unit": "nM"}, {"measurement": "IC50", "setting": "[5]; [14]", "result": 21.5, "unit": "nM"}, {"measurement": "inhibition at 1 µM", "setting": "[6]; [15]", "result": 106, "unit": "%"}, {"measurement": "inhibition at 1 µM", "setting": "[6]; [16]", "result": 96.7, "unit": "%"}, {"measurement": "IC50", "setting": "[6]; [17]", "result": "< 0.06", "unit": "µM"}, {"measurement": "IC50", "setting": "[6]; read-out: Pb ODA (this manuscript) IC50 (µM), P. berghei ookinete development assay, this manuscript", "result": 0.0558, "unit": "µM"}, {"measurement": "IC50", "setting": "[6]; [18]", "result": 0.056, "unit": "µM"}, {"measurement": "Pf DGFA Male, Expt 1", "setting": "[7]", "result": 100.00}, {"measurement": "Pf DGFA Male, Expt 2", "setting": "[7]", "result": 99.14}, {"measurement": "Pf DGFA Male, Expt 3", "setting": "[7]", "result": 99.70}, {"measurement": "Pf DGFA Male, Expt 4", "setting": "[7]", "result": 100.00}, {"measurement": "% inhibition Pf DGFA (male) 1 μM (±SEM)", "setting": "[7]", "result": 99.71, "unit": "%"}, {"measurement": "Assay tox ratio Pb ODA (red: <10-fold selectivity; green: >10-fold)", "setting": "[9]", "result": 747.08}, {"measurement": "Is compound selective in assay? Pb ODA active?", "setting": "[9]", "result": "1 (key: 1: YES; 0: NO)"}, {"measurement": "Pb ODA (this manuscript) HepG2 cytoxicity", "setting": "[10]; HepG2 cytotoxicity listed with the Pb ODA data set (this manuscript)", "result": 41.69, "unit": "µM"}, {"measurement": "IC50", "setting": "[10]", "result": 41700, "unit": "nM"}, {"measurement": "IC50 at 48 h", "setting": "[12]", "result": 41700, "unit": "nM"}]}
